From PMC8752827, “Towards a generic prototyping approach for therapeutically-relevant peptides and proteins in a cell-free translation system” (Nature Communications, 2022)
“Also recorded” adds a separate entry of the source. Where a SMILES comes first, the peptide text is derived from it. Bridges are numbered along the chain shown (N, C = ends). Where no end group is shown, it is not given here.

How the values were obtained:
Trypsin = target: T1, Trypsin (Bos taurus, UniProt P00760); test: Trypsin-inhibitory assay; format: biochemical; settings: for HillSlope / LogEC50: trypsin inhibition curve, nonlinear fit, variable slope, best-fit value
T1 construct: gene PRSS1
T1 sequence (P00760 24-246): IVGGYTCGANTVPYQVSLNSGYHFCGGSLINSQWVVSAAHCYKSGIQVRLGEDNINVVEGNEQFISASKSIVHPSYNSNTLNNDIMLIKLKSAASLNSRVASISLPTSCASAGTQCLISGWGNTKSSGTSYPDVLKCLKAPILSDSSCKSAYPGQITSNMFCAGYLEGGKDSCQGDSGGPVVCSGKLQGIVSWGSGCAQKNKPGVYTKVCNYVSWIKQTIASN
Procedure: Trypsin was freshly prepared at 400 pM in the assay buffer containing 0.1 M NaCl, 10 mM CaCl2, 0.005% Triton X-100, 0.1 M Tris-HCl pH 8.0. […] After incubation residual trypsin activity was measured by adding the quenched fluorescent peptide substrate Boc-Q-A-R- 7-amido-4-methyl-coumarin to a final concentration of 10 μM. The fluorescence increase upon the release of 7-amido-4-methyl-coumarin was monitored on Infinite M1000 Pro plate reader (Tecan) every 30 s using excitation and emission wavelengths of 360 and 460 nm, respectively.

[1] = test system: peptidyl-prolyl isomerase; settings: 10 μM inhibitor in Ec CFS translation reaction; Supplementary Fig. 19
Procedure: For details, refer to a procedure overview in the Supplementary Methods. Briefly, E. coli S30 extract was prepared as described by Schwarz et al.[68] with minor modifications. Briefly, cells were cultivated in 5–10 L of filter-sterilized TBGG media (tryptone 12 g/L, yeast extract 24 g/L, glycerol 8 mL/L, glucose 1 g/L, KH2PO4 2.31 g/L, K2HPO4 2.54 g/L) to OD 3.5, pre-chilled with 5 × 200 or 10 × 200 mL of –80 °C pre-frozen packs of LB broth and spun at 2.5 kg for 15 min. The cell pellet from the final wash was resuspended in 200 % (vol/wt) of S30B buffer and disrupted using fluidic disruption (Constant Systems, continuous flow mode) at 20 kpsi at 4 °C. Cell homogenate was cleared by two consecutive 30 min centrifugation steps at 30 kg at 4 °C while collecting the top ¾ of supernatant every time. The final supernatant was adjusted to 0.4 M with 5 M NaCl followed by 45 min incubation at 42 °C in a water bath. […]
Fluorescence DHFR activity assay was performed by monitoring the change in NADPH fluorescence (Ex 340 nm, […]) upon its conversion to NADP^+ in 200 µL of buffer containing 20 mM Tris-HCl pH 7.5, 100 mM NaCl, 1 mM Mg(OAc)2, 0.012% Tween 20, 2.5 mM DTT in a black 96-well plate (Corning). […] Fluorescence changes were recorded for 4 h. […]

[2] = test system: Drosophila melanogaster fruit flies; test: Insecticidal activity assay (microinjection, LD50); format: in vivo; settings: microinjection of 50 nL into female Drosophila melanogaster, lethal effects at 24 h; thrombin-cleaved cell-free Dc1a
Procedure: The insecticidal activity of the Dc1a and its cell-free produced analog was tested by microinjection in female Drosophila melanogaster fruit flies aged 3–4 days with an average weight of 0.8–0.9 mg according to the previously described method. Briefly, the C-terminally unprocessed Dc1a (Dc1a-GTGSGG-[…]) was dissolved in water for injection, and water was used as the respective negative control. The thrombin-cleaved Dc1a sample (Dc1a-GTGSGG-R) contained thrombin and the respective amount of thrombin was added to the control sample. The injection volume was 50 nL and three repeats of seven doses (each in n = 8 fruit flies) were used for each Dc1a analog. Female Drosophila were cooled on ice before injection. […] The number of control flies affected at the respective post-injection time was subtracted from the number of affected flies.

Compound | HillSlope (Trypsin) | LogEC50 (Trypsin) | EC50 (Trypsin) | further results
CC[C@H](C)[C@H](NC(=O)[C@@H]1CCCN1C(=O)[C@@H]1CCCN1C(=O)[C@@H](NC(=O)[C@@H](N)CO)[C@@H](C)CC)C(=O)N[C@H]1CSSC[C@@H](C(=O)N[C@H](C(=O)N[C@@H](CCCCN)C(=O)O)[C@@H](C)O)NC(=O)[C@H](CCC(N)=O)NC(=O)CNC(=O)[C@H](CC(=O)O)NC(=O)[C@@H]2CCCN2C(=O)[C@H](Cc2ccccc2)NC1=O [Cell-free_oMut-SFTI] (H-SIPPICFPDGQCTK-OH; disulfide 6-12; C-terminus assumed) | -1.405 | 2.696 log10 [SFTI], pM |  | 
CC[C@H](C)[C@@H]1NC(=O)[C@@H]2CCCN2C(=O)[C@@H]2CCCN2C(=O)[C@H]([C@@H](C)CC)NC(=O)[C@H](CO)NC(=O)[C@H](CCCCN)NC(=O)[C@H]([C@@H](C)O)NC(=O)[C@@H]2CSSC[C@H](NC1=O)C(=O)N[C@@H](Cc1ccccc1)C(=O)N1CCC[C@H]1C(=O)N[C@@H](CC(=O)O)C(=O)NCC(=O)N[C@@H](CCCNC(=N)N)C(=O)N2 [Chem_cyc-SFTI] | -1.291 | 2.234 log10 [SFTI], pM |  | 
CO[C@H]1C[C@@H]2CC[C@@H](C)[C@@](O)(O2)C(=O)C(=O)N2CCCC[C@H]2C(=O)O[C@H]([C@H](C)C[C@@H]2CC[C@@H](O)[C@H](OC)C2)CC(=O)[C@H](C)/C=C(\C)[C@@H](O)[C@@H](OC)C(=O)[C@H](C)C[C@H](C)/C=C/C=C/C=C/1C [rapamycin, Rapamycin] |  |  |  | effect on the gain of hDHFR activity by exposure of GFP-hDHFR to lysate (post-translational capture) [1]: eliminated the beneficial effect of protein exposure to lysate in Ec CFS
Dc1a-GTGSGG-R (bicyclic or more) [cell-free produced Dc1a harboring GTGSGGR on its C-terminus after thrombin cleavage] |  |  |  | insecticidal activity, in words [2]: showed the expected biological activity; also recorded: insecticidal activity similar to the synthetic wild-type toxin
GGVCPKILKKCRRDSDCPGACICRGNGYCGSGSDGLPRGSIDTWV (disulfide 4-21, 11-23, 17-29) [wtMCoTI-RGS] |  |  | 0.609 nM | trypsin-inhibitory activity / Ki for trypsin, compared in words (Trypsin; trypsin-inhibitory assay, comparison with the named counterpart): almost fourfold higher Ki for trypsin
ILKKCRRDSDCPGACICRGNGYCGSGSDGGVCPKGAGRGSIDTWV (disulfide 5-17, 11-23, 15-32) [prmMcoTI-RGS] |  |  | 0.167 nM | 
